The values that follow are results of earlier work, collected in US20080188457A1, “Modulation of Neurogenesis with Biguanides and GSK3-beta Agents” (BrainCells, Inc., priority 2007, published 2008).

Data set [1] has as its system Group I or Group III receptors. The conditions noted are these: at sub-mM concentrations.
For data set [2], the target named is mGluR2 (Homo sapiens, UniProt Q14416).
For data set [3], the target named is mGluR3 (Homo sapiens, UniProt Q14832).
Data set [4] has as its system KA, AMPA, and NMDA iGlu receptors.
In data set [5] the target is human mGlu2 receptor (Homo sapiens, UniProt Q14416). The conditions noted are these: in vitro; low nanomolar range.
The target in data set [6] is human mGlu3 receptor (Homo sapiens, UniProt Q14832). The conditions noted are these: in vitro; low nanomolar range.
Data set [7] has as its system gluconeogenesis. The conditions noted are these: person with type 2 diabetes.

mGluR2, sequence (Q14416 19-872): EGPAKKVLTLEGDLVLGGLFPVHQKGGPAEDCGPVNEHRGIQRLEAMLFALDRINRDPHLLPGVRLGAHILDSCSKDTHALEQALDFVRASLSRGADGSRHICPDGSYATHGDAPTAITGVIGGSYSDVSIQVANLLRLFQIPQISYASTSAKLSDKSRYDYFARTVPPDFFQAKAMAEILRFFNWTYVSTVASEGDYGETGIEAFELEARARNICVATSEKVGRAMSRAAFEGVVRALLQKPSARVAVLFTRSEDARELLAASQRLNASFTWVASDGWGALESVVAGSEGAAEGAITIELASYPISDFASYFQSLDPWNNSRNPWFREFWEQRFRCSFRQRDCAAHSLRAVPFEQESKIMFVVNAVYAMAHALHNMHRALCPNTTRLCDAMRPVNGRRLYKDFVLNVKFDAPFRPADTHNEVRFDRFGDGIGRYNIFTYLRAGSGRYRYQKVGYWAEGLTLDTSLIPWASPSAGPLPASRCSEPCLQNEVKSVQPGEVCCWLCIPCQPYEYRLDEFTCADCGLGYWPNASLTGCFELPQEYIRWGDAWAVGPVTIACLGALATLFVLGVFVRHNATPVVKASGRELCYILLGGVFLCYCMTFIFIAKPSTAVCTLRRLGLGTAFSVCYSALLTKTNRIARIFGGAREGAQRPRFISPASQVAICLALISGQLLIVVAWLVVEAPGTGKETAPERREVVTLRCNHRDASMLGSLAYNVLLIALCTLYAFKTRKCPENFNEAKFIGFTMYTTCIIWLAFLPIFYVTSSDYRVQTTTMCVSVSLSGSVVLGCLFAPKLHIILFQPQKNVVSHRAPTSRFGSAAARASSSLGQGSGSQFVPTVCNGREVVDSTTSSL
human mGlu2 receptor, sequence (Q14416 19-872): as above
mGluR3, sequence (Q14832 23-879): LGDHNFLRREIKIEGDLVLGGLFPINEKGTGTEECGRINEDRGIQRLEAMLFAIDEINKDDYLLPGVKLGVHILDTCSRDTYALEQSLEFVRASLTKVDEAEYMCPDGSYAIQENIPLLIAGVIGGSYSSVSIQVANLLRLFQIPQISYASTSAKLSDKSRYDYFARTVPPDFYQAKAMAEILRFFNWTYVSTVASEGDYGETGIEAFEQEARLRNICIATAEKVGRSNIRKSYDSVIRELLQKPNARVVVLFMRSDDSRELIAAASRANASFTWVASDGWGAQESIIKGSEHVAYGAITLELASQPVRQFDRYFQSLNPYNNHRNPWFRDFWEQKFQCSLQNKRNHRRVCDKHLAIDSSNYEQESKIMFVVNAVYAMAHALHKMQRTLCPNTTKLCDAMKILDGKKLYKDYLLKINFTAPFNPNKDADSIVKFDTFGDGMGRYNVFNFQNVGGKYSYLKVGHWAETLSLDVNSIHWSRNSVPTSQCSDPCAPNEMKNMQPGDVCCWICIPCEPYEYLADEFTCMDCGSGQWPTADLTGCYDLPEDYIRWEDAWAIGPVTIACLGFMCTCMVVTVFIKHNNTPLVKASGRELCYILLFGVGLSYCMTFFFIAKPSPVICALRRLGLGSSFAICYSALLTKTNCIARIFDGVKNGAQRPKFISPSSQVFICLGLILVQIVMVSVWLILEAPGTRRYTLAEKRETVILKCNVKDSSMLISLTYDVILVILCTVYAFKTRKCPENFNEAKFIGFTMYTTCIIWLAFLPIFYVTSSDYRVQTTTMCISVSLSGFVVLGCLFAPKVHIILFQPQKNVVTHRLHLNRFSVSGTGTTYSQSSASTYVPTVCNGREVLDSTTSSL
human mGlu3 receptor, sequence (Q14832 23-879): as above

With `NC1(C(=O)O)CCc2cc(P(=O)(O)O)ccc21` (racemic) [APICA, (RS)-1-amino-5-phosphonoindan-1-carboxylic acid], the “activity against Group I or Group III receptors” value in data set [1] is recorded as “no appreciable activity”. The IC50 in data set [2] and in data set [3] was around 30 µM each time.

On to `N[C@](CC1c2ccccc2Oc2ccccc21)(C(=O)O)[C@H]1C[C@@H]1C(=O)O` [LY341495, (2S)-2-amino-2-(1S,2S-2-carboxycycloprop-1-yl)-3-(xanth-9-yl) propanoic acid], for which, in data set [4], the “activity against KA, AMPA, and NMDA iGlu receptors” value is “substantially inactive”.

Regarding `N[C@@]1(C(=O)O)CO[C@H]2[C@H](C(=O)O)[C@H]21` [LY379268, (−)-2-Oxa-4-aminobicyclohexane-4,6-dicarboxylic acid], the EC50 in data set [5] and in data set [6] was below 0.01 µM each time.

With `CN(C)C(=N)NC(=N)N` [metformin, 1,1-Dimethylbiguanide], the “reduction of the rate of gluconeogenesis” value in data set [7] is given as “over one third”.
